In publication PMC6368365, “Didehydro-Cortistatin A Inhibits HIV-1 by Specifically Binding to the Unstructured Basic Region of Tat” (mBio, 2019):

Molecular target: Tat-TAR interaction (Human immunodeficiency virus type 1 group M subtype B, UniProt P69697)
Assay: ChIP of FLAG-Tat followed by qRT-PCR of TAR in HeLa-CD4-LTR-Luc cells
Format: cell-based, HIV-1
Set-up: expressed in transfected cells; host or cells: HeLa-CD4-LTR-Luc
Conditions: compounds 25 nM, 48 h
Excerpt: FIG 6 dCA binding to Tat disrupts Tat-TAR interaction. (A) EMSA of full-length Tat with TAR in the presence of dCA. Raltegravir (Ralt.) and deleted bulge TAR (ΔTAR) were used as negative controls. Data are representative of n = 3 independent experiments. (B) EMSA of Tat’s basic domain with TAR in the presence of increasing concentrations of dCA to Tat’s basic peptide. Pep B is a peptide encompassing the basic domain of HIV Tat (^45ISYGRKKRRQRRRAP^59). Pep C (^69LSKQPASQPRGDPTG^83) and unlabeled or cold TAR (TARc) were used as negative controls. Neomycin, which binds to Tat and TAR, was used as a positive control. Ratios of compounds (or TARc) concentrations to peptide are shown. Data are representative of n = 3 independent experiments. […] Shown are ITC results from binding of dCA (left) or Tat peptide (right) to TAR at 25°C. […] For the lower plots, results were converted to molar heats and plotted against the molar ratio of dCA or peptide to RNA. […] Luciferase activity was determined relative to protein concentration (Bradford assay) (Fig. S9A). […] Statistical significance was determined using one-way ANOVA with post hoc Tukey’s test with 3 technical replicates. ns, not significant; ***, P < 0.0001. […]
Chromatin immunoprecipitation assay (CHIP). […] The relative proportions of co-immunoprecipitated DNA were determined on the basis of the threshold cycle for qRT-PCR. […]

Chain of Tat-TAR interaction (P69697 whole entry): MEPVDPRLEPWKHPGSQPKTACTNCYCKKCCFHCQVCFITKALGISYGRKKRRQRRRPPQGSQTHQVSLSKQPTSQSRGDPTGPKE

SMILES	Tat-TAR interaction in cells (ChIP)
CN(C)C1CC23CCC4(O2)C(=CCC2(C)C(c5ccc6ccncc6c5)=CCC24)C=C3C(O)C1O (centres unmarked) [dCA, didehydro-cortistatin A]	reduced this Tat-TAR interaction to similar levels as FLAG-Tat Mut
Cc1nnc(C(=O)NC(C)(C)c2nc(C(=O)NCc3ccc(F)cc3)c(O)c(=O)n2C)o1 [raltegravir, reference compound]	A Tat-TAR interaction was detected
